# According to PubChem BioAssay (NCI):
#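 Protocol summary: plate cells (96-well), add compound at 5 concentrations, incubate 48 h, interpolate endpoints linearly. At the GI50, growth is halved. TGI: concentration producing complete growth inhibition.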
# Key:
# Experiment in all cases: inhibition of tumour cell growth, NCI panel, 48 h
# MDA-MB-435 = system: MDA-MB-435
# TK-10 renal = system: TK-10 renal
# SNB-75 CNS = system: SNB-75 CNS
# RPMI-8226 leukemia = system: RPMI-8226 leukemia
# SF-539 CNS = system: SF-539 CNS
# SK-MEL-28 melanoma = system: SK-MEL-28 melanoma
# OVCAR-5 ovarian = system: OVCAR-5 ovarian
# UACC-257 melanoma = system: UACC-257 melanoma
# SK-OV-3 ovarian = system: SK-OV-3 ovarian
# SR leukemia = system: SR leukemia
# ACHN renal = system: ACHN renal
# MDA-MB-231 breast = system: MDA-MB-231 breast
# DU-145 prostate = system: DU-145 prostate
# PC-3 prostate = system: PC-3 prostate
# A498 renal = system: A498 renal
# OVCAR-3 ovarian = system: OVCAR-3 ovarian
# SF-268 CNS = system: SF-268 CNS
# SF-295 CNS = system: SF-295 CNS
# MCF7 breast = system: MCF7 breast
# KM12 colon = system: KM12 colon
# MALME-3M melanoma = system: MALME-3M melanoma
# CAKI-1 renal = system: CAKI-1 renal
# HCT-15 colon = system: HCT-15 colon
# UO-31 renal = system: UO-31 renal
# RXF 393 renal = system: RXF 393 renal
# NCI-H460 lung = system: NCI-H460 lung
# HOP-92 NSCLC = system: HOP-92 NSCLC
# SN12C renal = system: SN12C renal
# SK-MEL-2 melanoma = system: SK-MEL-2 melanoma
# OVCAR-4 ovarian = system: OVCAR-4 ovarian
# UACC-62 melanoma = system: UACC-62 melanoma
# BT-549 breast = system: BT-549 breast
# SW-620 colon = system: SW-620 colon
# T-47D breast = system: T-47D breast
# EKVX NSCLC = system: EKVX NSCLC
# A549 NSCLC = system: A549 NSCLC
# K-562 leukemia = system: K-562 leukemia
# NCI-H23 lung = system: NCI-H23 lung
# COLO 205 colon = system: COLO 205 colon
# HL-60(TB) leukemia = system: HL-60(TB) leukemia
# HOP-62 NSCLC = system: HOP-62 NSCLC
# U251 CNS = system: U251 CNS
# SK-MEL-5 melanoma = system: SK-MEL-5 melanoma
# NCI-H226 lung = system: NCI-H226 lung
# MOLT-4 leukemia = system: MOLT-4 leukemia
# SNB-19 CNS = system: SNB-19 CNS
# CCRF-CEM leukemia = system: CCRF-CEM leukemia
# OVCAR-8 ovarian = system: OVCAR-8 ovarian
# HT29 colon = system: HT29 colon
# HCT-116 colon = system: HCT-116 colon
# HCC-2998 colon = system: HCC-2998 colon
# IGROV1 ovarian = system: IGROV1 ovarian
# NCI/ADR-RES ovarian = system: NCI/ADR-RES ovarian
# LOX IMVI melanoma = system: LOX IMVI melanoma
# 786-0 renal = system: 786-0 renal
# NCI-H522 lung = system: NCI-H522 lung
# M14 melanoma = system: M14 melanoma
structure (smiles),measurement,setting,value
CCCCCCCCCCCCCC1=NCC[N+]1(CCO)Cc1ccccc1 (stereo not drawn),GI50,MDA-MB-435,1.69 µM
same,TGI,MDA-MB-435,3.18 µM
same,GI50,TK-10 renal,1.71 µM
same,TGI,TK-10 renal,3.28 µM
same,GI50,SNB-75 CNS,1.45 µM
same,TGI,SNB-75 CNS,2.81 µM
same,GI50,RPMI-8226 leukemia,1.85 µM
same,TGI,RPMI-8226 leukemia,4.8 µM
same,GI50,SF-539 CNS,1.68 µM
same,TGI,SF-539 CNS,3.16 µM
same,GI50,SK-MEL-28 melanoma,1.7 µM
same,TGI,SK-MEL-28 melanoma,3.22 µM
same,GI50,OVCAR-5 ovarian,1.57 µM
same,TGI,OVCAR-5 ovarian,3.07 µM
same,GI50,UACC-257 melanoma,2 µM
same,TGI,UACC-257 melanoma,3.72 µM
same,GI50,SK-OV-3 ovarian,1.86 µM
same,TGI,SK-OV-3 ovarian,3.8 µM
same,GI50,SR leukemia,1.51 µM
same,TGI,SR leukemia,4.2 µM
same,GI50,ACHN renal,1.63 µM
same,TGI,ACHN renal,3.1 µM
same,GI50,MDA-MB-231 breast,1.54 µM
same,TGI,MDA-MB-231 breast,3.14 µM
same,GI50,DU-145 prostate,1.77 µM
same,TGI,DU-145 prostate,3.23 µM
same,GI50,PC-3 prostate,1.64 µM
same,TGI,PC-3 prostate,3.23 µM
CN1CCN(CC(=O)Nc2ccc3ncnc(Nc4ccc(Oc5cccc(C(F)(F)F)c5)c(Cl)c4)c3c2)CC1,GI50,A498 renal,1.32 µM
same,TGI,A498 renal,2.66 µM
same,GI50,OVCAR-3 ovarian,1.49 µM
same,TGI,OVCAR-3 ovarian,2.87 µM
same,GI50,MDA-MB-435,1.58 µM
same,TGI,MDA-MB-435,2.97 µM
same,GI50,TK-10 renal,1.25 µM
same,TGI,TK-10 renal,2.83 µM
same,GI50,SF-268 CNS,1.49 µM
same,TGI,SF-268 CNS,3.11 µM
same,GI50,SF-295 CNS,1.81 µM
same,TGI,SF-295 CNS,3.31 µM
same,GI50,MCF7 breast,1.48 µM
same,TGI,MCF7 breast,3 µM
same,GI50,KM12 colon,1.79 µM
same,TGI,KM12 colon,3.3 µM
same,GI50,SNB-75 CNS,1.35 µM
same,TGI,SNB-75 CNS,2.67 µM
same,GI50,MALME-3M melanoma,1.56 µM
same,TGI,MALME-3M melanoma,3.05 µM
same,GI50,CAKI-1 renal,1.24 µM
same,TGI,CAKI-1 renal,2.49 µM
same,GI50,HCT-15 colon,1.2 µM
same,TGI,HCT-15 colon,2.52 µM
same,GI50,UO-31 renal,1.2 µM
same,TGI,UO-31 renal,2.46 µM
same,GI50,RXF 393 renal,1.41 µM
same,TGI,RXF 393 renal,2.89 µM
same,GI50,NCI-H460 lung,1.74 µM
same,TGI,NCI-H460 lung,3.29 µM
same,GI50,SF-539 CNS,1.6 µM
same,TGI,SF-539 CNS,2.99 µM
same,GI50,HOP-92 NSCLC,1.09 µM
same,TGI,HOP-92 NSCLC,2.46 µM
same,GI50,SK-MEL-28 melanoma,1.71 µM
same,TGI,SK-MEL-28 melanoma,3.16 µM
same,GI50,OVCAR-5 ovarian,1.58 µM
same,TGI,OVCAR-5 ovarian,2.98 µM
same,GI50,SN12C renal,1.7 µM
same,TGI,SN12C renal,3.26 µM
same,GI50,SK-MEL-2 melanoma,2.02 µM
same,TGI,SK-MEL-2 melanoma,4.04 µM
same,GI50,OVCAR-4 ovarian,1.51 µM
same,TGI,OVCAR-4 ovarian,3.02 µM
same,GI50,UACC-257 melanoma,1.93 µM
same,TGI,UACC-257 melanoma,3.79 µM
same,GI50,UACC-62 melanoma,1.83 µM
same,TGI,UACC-62 melanoma,3.4 µM
same,GI50,SR leukemia,0.371 µM
same,TGI,SR leukemia,2.2 µM
same,GI50,BT-549 breast,1.47 µM
same,TGI,BT-549 breast,2.85 µM
same,GI50,SW-620 colon,1.72 µM
same,TGI,SW-620 colon,3.25 µM
same,GI50,ACHN renal,1.12 µM
same,TGI,ACHN renal,2.33 µM
same,GI50,MDA-MB-231 breast,1.78 µM
same,TGI,MDA-MB-231 breast,3.3 µM
same,GI50,DU-145 prostate,1.4 µM
same,TGI,DU-145 prostate,2.71 µM
same,GI50,T-47D breast,1.66 µM
same,TGI,T-47D breast,4.1 µM
same,GI50,EKVX NSCLC,1.32 µM
same,TGI,EKVX NSCLC,2.7 µM
same,GI50,PC-3 prostate,1.69 µM
same,TGI,PC-3 prostate,3.26 µM
Cc1cccc(-c2cc(=O)c3ccc(C)nc3[nH]2)c1,TGI,A549 NSCLC,> 100 µM
same,TGI,A498 renal,> 51.1 µM
same,TGI,K-562 leukemia,> 100 µM
same,TGI,OVCAR-3 ovarian,0.503 µM
same,TGI,TK-10 renal,> 84.6 µM
same,TGI,SF-268 CNS,> 100 µM
same,TGI,SF-295 CNS,14.9 µM
same,TGI,MCF7 breast,> 100 µM
same,TGI,KM12 colon,20.5 µM
same,TGI,NCI-H23 lung,> 37.9 µM
same,TGI,COLO 205 colon,4.06 µM
same,TGI,SNB-75 CNS,49.2 µM
same,TGI,HL-60(TB) leukemia,0.526 µM
same,TGI,MALME-3M melanoma,> 100 µM
same,TGI,CAKI-1 renal,> 100 µM
same,TGI,HCT-15 colon,> 35.2 µM
same,TGI,RPMI-8226 leukemia,23.2 µM
same,TGI,UO-31 renal,> 100 µM
same,TGI,HOP-62 NSCLC,> 100 µM
same,TGI,RXF 393 renal,> 100 µM
same,TGI,NCI-H460 lung,19.5 µM
same,TGI,SF-539 CNS,14.6 µM
same,TGI,HOP-92 NSCLC,57.7 µM
same,TGI,U251 CNS,> 100 µM
same,TGI,SK-MEL-5 melanoma,15.4 µM
same,TGI,NCI-H226 lung,26.8 µM
same,TGI,MOLT-4 leukemia,> 80.6 µM
same,TGI,SK-MEL-28 melanoma,> 100 µM
same,TGI,OVCAR-5 ovarian,> 100 µM
same,TGI,SNB-19 CNS,> 100 µM
same,TGI,SN12C renal,> 100 µM
same,TGI,CCRF-CEM leukemia,> 22.8 µM
same,TGI,SK-MEL-2 melanoma,> 100 µM
same,TGI,OVCAR-4 ovarian,> 100 µM
same,TGI,OVCAR-8 ovarian,> 100 µM
same,TGI,HT29 colon,1.82 µM
same,TGI,HCT-116 colon,> 20.4 µM
same,TGI,HCC-2998 colon,27.4 µM
same,TGI,IGROV1 ovarian,> 100 µM
same,TGI,NCI/ADR-RES ovarian,0.383 µM
same,TGI,UACC-62 melanoma,> 100 µM
same,TGI,SK-OV-3 ovarian,> 100 µM
same,TGI,SR leukemia,2.07 µM
same,TGI,BT-549 breast,> 100 µM
same,TGI,ACHN renal,> 100 µM
same,TGI,LOX IMVI melanoma,> 100 µM
same,TGI,MDA-MB-231 breast,5.87 µM
same,TGI,786-0 renal,> 100 µM
same,TGI,DU-145 prostate,> 56.9 µM
same,TGI,T-47D breast,> 100 µM
same,TGI,NCI-H522 lung,0.75 µM
same,TGI,M14 melanoma,> 100 µM
same,TGI,EKVX NSCLC,> 100 µM
same,TGI,PC-3 prostate,> 82.9 µM
